US20020028193A1, “Recombinant beta2-adrenergic receptor delivery and use in treating airway and vascular diseases” (priority 2000, published 2002)
“And” between values parts separate entries of the source, which are not always exact repeats. Equal entries are not always repeated.

Experiments:
β2AR [1] = target: T1, β2AR (Rattus norvegicus, UniProt P10608); settings: SPOC1 cell membranes
[2] = tested on: β2AR-luciferase fusion genes; assay: Dexamethasone induction of β2AR-luciferase fusion genes transiently transfected into HepG2 cells; assay type: cell-based, human; settings: pβ2AR(−643/+126); 0.1 μM dexamethasone, 8 hrs
Protocol: HepG2 cells were transiently transfected with pRShGRα, pRSVβ-ga1, and either pβ2AR(−62/+126), pβ2AR(−152/+126), pβ2AR(−643/+126), pβ2AR(−1115/+126), pβ2AR(−2552/+126), pβ2AR(−3129/+126), or N-600 prATLUC. Transfected cells were incubated for 48 hours prior to addition of dexamethasone. Luciferase activity for each construct is expressed relative to that obtained with pβ2AR(−62/+126) in the absence of dexamethasone.
Human HepG2 cells were transiently transfected with pRShGRα, pRSVβ-gal, and either pβ2AR(−3129/+126) or pβ2ARm1 (−3129/+126) as described in the specification. After transfection, the cells were incubated for 8 hours in either the absence or presence of 0.1 μM dexamethasone and cells were harvested. Values are means±S.E. of data from five independent experiments, each performed in triplicate. Asterisks indicate a significant (p<0.05) difference in luciferase activity from untreated and dexamethasone-treated cells as determined by Student's t-test.
In order to determine whether the six putative GREs were functional, six β2AR-luciferase fusion gene deletion mutants were generated. […] To test the effect of dexamethasone on expression of the truncated β2AR-luciferase fusion genes, HepG2 cells transfected with each of the six fusion genes were incubated with either vehicle or 0.1 μM dexamethasone for 8 hrs, and luciferase activity was determined. […]

GRE-pT81LUC fusion genes = assay: Dexamethasone induction of putative GREs fused to heterologous thymidine kinase promoter (pT81LUC) in HepG2 cells; assay type: cell-based, human; settings: 0.1 μM dexamethasone
Protocol: Plasmid constructs with the luciferase gene under the control of the tk promoter and various putative GREs (see FIG. 8 for sequences) were tested for luciferase activity after transfection into HepG2 cells that were co-transfected with pRShGRα. Transfected cells were incubated for 48 hours prior to addition of 0.1 μM dexamethasone.
To further examine the functionality of the putative glucocorticoid response elements, fragments containing either GRE1, GRE5, or GRE2, GRE3 and GRE4 together were fused to pT81LUC, a luciferase expression plasmid driven by a minimal thymidine kinase promoter.^102 Sequences of the double stranded oligonucleotides containing GRE1, GRE5 and the MMTV GRE are shown in FIG. 10. […] Activity of GRE5-pT81LUC was induced 3.2-fold in the presence of 0.1 μM dexamethasone (FIG. 12), a value that was higher than that observed with any of the β2AR-luciferase fusion genes that included GRE5. Activity of GRE1-pT81LUC was not induced by 0.1 μM dexamethasone (FIG. 12). […] This level of fold-induction was similar to that obtained with MMTVsequence fused to pT81LUC.

[3] = tested on: β2AR-luciferase fusion genes; assay: Dexamethasone induction of β2AR-luciferase fusion genes in transiently transfected SPOC1 cells; assay type: cell-based, rat; settings: pβ2AR(−3129/+126) in SPOC1 cells; 0.1 μM dexamethasone, 8 hrs
β2AR [4] = target: T1, β2AR; assay: Cyclic AMP accumulation in SPOC1 cells (radioimmunoassay); assay type: cell-based; parameters: Because SPOC1 cells express a wild-type β2AR; endogenous in cells; host or cells: SPOC1 rat tracheal epithelial cells
Protocol: Cyclic AMP accumulation was measured by radioimmunoassay. Significant differences were determined by one way ANOVA and Neuman-Keuls test.
In order to determine if the recombinant β2AR expressed in clonal SPOC1 cells is able to functionally couple to adenylyl cyclase, cyclic AMP radioimmunoassays are performed using lysates. Mock-infected and clonal SPOC1 cells are plated at a density of 100,000 cells/well in 12-well dishes (Costar, Cambridge, Mass.). Cells are treated with adrenergic agonists and the phosphodiesterase inhibitor isobutylmethylxanthine (IBMX) for 10 min. Cellular cyclic AMP levels are determined by radioimmunoassay using the Biotrak CAMP Assay System (Amersham Life Science, Arlington Heights, Ill.). […] These experiments are repeated four times with four different SPOC1 cell platings.

mucociliary clearance = settings: inhaled, humans, controls and asthmatic individuals; cited from earlier work
[5] = target: glucocorticoid receptor alpha (expressed from pRShGRalpha) (Homo sapiens) (UniProt P04150); assay: cell_activity; settings: MMTV-pT81LUC in HepG2, 0.1 uM dexamethasone
Sequence of glucocorticoid receptor alpha (expressed from pRShGRalpha) (Homo sapiens) (P04150 whole entry): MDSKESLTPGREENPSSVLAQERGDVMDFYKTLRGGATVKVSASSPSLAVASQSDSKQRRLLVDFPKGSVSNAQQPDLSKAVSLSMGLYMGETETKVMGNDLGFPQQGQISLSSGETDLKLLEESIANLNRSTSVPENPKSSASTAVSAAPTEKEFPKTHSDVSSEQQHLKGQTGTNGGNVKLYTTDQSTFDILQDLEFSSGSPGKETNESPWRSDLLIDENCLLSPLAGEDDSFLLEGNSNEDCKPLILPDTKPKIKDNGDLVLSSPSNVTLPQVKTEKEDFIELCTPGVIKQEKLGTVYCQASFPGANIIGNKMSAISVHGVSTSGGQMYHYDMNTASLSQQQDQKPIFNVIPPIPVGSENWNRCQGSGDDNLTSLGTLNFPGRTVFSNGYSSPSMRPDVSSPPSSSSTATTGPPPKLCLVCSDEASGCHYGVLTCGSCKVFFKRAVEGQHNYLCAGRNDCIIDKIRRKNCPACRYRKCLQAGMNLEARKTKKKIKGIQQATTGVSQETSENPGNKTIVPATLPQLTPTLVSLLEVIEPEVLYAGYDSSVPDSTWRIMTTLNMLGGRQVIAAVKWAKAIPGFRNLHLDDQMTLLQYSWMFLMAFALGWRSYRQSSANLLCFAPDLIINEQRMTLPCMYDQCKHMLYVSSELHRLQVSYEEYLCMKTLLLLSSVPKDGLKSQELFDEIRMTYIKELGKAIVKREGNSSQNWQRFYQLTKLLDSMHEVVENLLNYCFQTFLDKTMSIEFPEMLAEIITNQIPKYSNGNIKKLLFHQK

[6] = target: glucocorticoid receptor alpha (expressed from pRShGRalpha) (Homo sapiens, UniProt P04150 P04150:1-777); assay: cell_activity; GRE5-pT81LUC in HepG2, 0.1 uM dexamethasone; settings: tags: co-transfected expression plasmid pRShGRalpha in HepG2 cells; chain copies: 2; label: 32P
Sequence of glucocorticoid receptor alpha (expressed from pRShGRalpha) (P04150 whole entry, the tested form may be a part, one chain of several): as the sequence (P04150 whole entry) above
From the text: To further examine the functionality of the putative glucocorticoid response elements, fragments containing either GRE₁, GRE₅, or GRE₂, GRE₃ and GRE₄ together were fused to pT81LUC, a luciferase expression plasmid driven by a minimal thymidine kinase promoter.¹⁰² Sequences of the double stranded oligonucleotides containing GRE₁, GRE₅ and the MMTV GRE are shown in FIG. 10.

[7] = target: glucocorticoid receptor (recombinant human GR) (Homo sapiens, UniProt P04150 P04150:1-777); assay: competition; unlabeled competitor did not compete with labeled GRE5 at up to 250-fold excess; settings: chain copies: 2
Sequence of glucocorticoid receptor (recombinant human GR) (P04150 whole entry, one chain of several): as the sequence (P04150 whole entry) above
Protocol: To further characterize the ability of GRE₅ to bind glucocorticoid receptor in vitro, we performed electrophoretic mobility shift assays with recombinant human glucocorticoid receptor and serial dilutions of various competitor oligonucleotides was performed.

T1 sequence (P10608 whole entry, the tested form may be a part): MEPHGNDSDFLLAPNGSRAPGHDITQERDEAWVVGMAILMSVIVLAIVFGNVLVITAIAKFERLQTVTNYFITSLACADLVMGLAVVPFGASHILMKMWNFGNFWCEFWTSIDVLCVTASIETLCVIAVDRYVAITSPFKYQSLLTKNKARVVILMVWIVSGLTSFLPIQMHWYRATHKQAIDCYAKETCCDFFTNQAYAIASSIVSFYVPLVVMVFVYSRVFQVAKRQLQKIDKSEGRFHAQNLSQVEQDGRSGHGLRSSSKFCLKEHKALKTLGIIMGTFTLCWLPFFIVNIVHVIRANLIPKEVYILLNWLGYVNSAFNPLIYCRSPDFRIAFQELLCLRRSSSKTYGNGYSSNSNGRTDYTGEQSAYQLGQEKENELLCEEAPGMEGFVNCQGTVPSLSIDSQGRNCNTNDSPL

CC(C)(C)NCC(O)COc1cccc2[nH]c(C#N)c(I)c12 (stereo not shown) [[^125I]CYP, [^125I]cyanoiodopindolol]
binding site concentration (β2AR [1]; [125I]CYP saturation): 60 fmol/mg protein | Kd (β2AR [1]; read-out: [125I]CYP dissociation constant, 37° C., 2 hour, nonspecific binding 0.1 μM (−)-propranolol, representative Scatchard plot): 10 pM

C[C@@H]1C[C@H]2[C@@H]3CCC4=CC(=O)C=C[C@]4(C)[C@@]3(F)[C@@H](O)C[C@]2(C)[C@@]1(O)C(=O)CO [dexamethasone]
induction of luciferase activity [2]: approximately 1.5 fold | induction of luciferase activity (GRE-pT81LUC fusion genes; GRE5-pT81LUC): 3.2 fold | induction of luciferase activity (GRE-pT81LUC fusion genes; MMTV-pT81LUC fusion gene (positive control)): ~4 fold | induction in luciferase activity [3]: ~2 fold

CC(C)NCC(O)c1ccc(O)c(O)c1 (stereo not shown) [isoproterenol]
Cyclic AMP production (β2AR [4]): 3.17±0.57 fmol/min/mg protein and 5.95±1.4 fmol/min/mg protein

CCC(NC(C)C)C(O)c1ccc(O)c2[nH]c(=O)ccc12 (stereo not shown) [procaterol]
effect on mucociliary clearance (mucociliary clearance): no effect

CC(C)(C)NCC(O)c1cc(O)cc(O)c1 (stereo not shown) [terbutaline]
effect on mucociliary clearance (mucociliary clearance): increases

MMTV GRE
activity (fold induction) [5]: 4

isobutylmethylxanthine [IBMX]
Cyclic AMP accumulation (β2AR [4]; 100 μM IBMX, 10 min at 37° C., control 0.27±0.08, statistically insignificant increase): 0.40±0.04 fmol/min/mg protein

B1: GRE5 (rat beta2AR gene, 35 bp oligonucleotide; core printed only) (dsDNA)
DNA 1: GGGTGAGCTGTTCT
DNA 2: AGAACAGCTCACCC
activity [6]: 3.2 fold induction

B2: m1GRE5 (core printed only) (dsDNA)
DNA 1: GGGTGAGCTATTCT
DNA 2: AGAATAGCTCACCC
binding result [7]: no binding
